Data set [1] can be described thus: Human Phase 0 three-way crossover microdose pharmacokinetic study of 14C-labelled M4N (AMS). In kind it is in vivo. An excerpt: This study was designed to assess the absorption of […] when administered to humans as a sub-therapeutic dose either as a single oral dose under fed and fasted conditions or a single intravenous dose (Regimens A-C, respectively, in Table 24). […] During the course of each study period, pharmacokinetic blood samples were taken at specified time points after dosing and urine was collected over pre-defined time intervals. The subjects were able to leave the clinical unit after the completion of study specific procedures at 24 hours post-dose. In this study, […] was administered to humans in a 100 μg quantity. […] Each oral administration of […] consisted of 0.1 mg of ^14C labeled […] and 376.8 mg of glycerol monooleate in a size 0 gelatin capsule. […] The baseline levels of […] were corrected for any residual […] remaining in the subjects following the periods between dosing so as not to inflate the levels of […] for any subsequent dosing.

The next data set concerns Sprague-Dawley rats. Nature of the data set: 8-Day IV infusion toxicity study in Sprague-Dawley rats. The format is in vivo. The method, then: Escalating doses of 0, 100, 150, or 200 mg/kg M4N in 10% HP-β-CD in PEG 300 (6.25 mg/mL) were administered by IV infusion once every four days to male and female Sprague-Dawley rats (3/each sex) at 8 mL/kg/hr. […] […] One male rat was found dead on the first day dosage during administration of the vehicle and one female rat was found dead on day 5 of the study at the end of the infusion of 100 mg/kg of the test material. These deaths were not considered related to the test article because for one rat no test article (only vehicle) was administered and for the other rat, this was a single event with other rats surviving multiple days of dosing at 200 mg/kg/day.

Where [2] appears, read: 200 mg/kg/day, continued daily dosing phase.

The results in this text go back to patent publication US20080096967A1, “Formulations for Injection of Catecholic Butanes, Including Ndga Compounds, Into Animals” (priority 2005, published 2008).

Structures are written as SMILES. Like-named read-outs stand apart in the source and are kept apart here. Marks after values point to notes of the source that are not given here. Where only a bound is given, the exact number is not on record here.

A word on the Cmax: it is the peak of the concentration-time curve. As a reminder, the Tmax is the time at which the peak concentration occurs. On to `COc1ccc(C[C@@H](C)[C@@H](C)Cc2ccc(OC)c(OC)c2)cc1OC` [Formulation M4N, meso-1,4-bis(3,4-dimethoxyphenyl)-2,3-dimethylbutane], for which the T½ in data set [1] (Regimen A (oral, fed): 100 μg single oral dose following a high fat breakfast, 14C, baseline corrected, mean ± SD) stood at 96.5 ± 20.7 h; in data set [1] (Regimen B (oral, fasted): 100 μg single oral dose following an overnight fast, 14C, baseline corrected, mean ± SD), 50.9 ± 22.4 h; in data set [1] (Regimen C (Intravenous): 100 μg as 1 mL bolus intravenous solution following an overnight fast, 14C, baseline corrected, mean ± SD), 116.2 ± 64.0 h. In addition, the Cmax was determined as 5.94 ± 1.33 pM in data set [1] (Regimen A (oral, fed): 100 μg single oral dose following a high fat breakfast, 14C, baseline corrected, mean ± SD, read-out: Cmax); 9.29 ± 1.4 pM in data set [1] (Regimen B (oral, fasted): 100 μg single oral dose following an overnight fast, 14C, baseline corrected, mean ± SD, read-out: Cmax); 10.3 ± 1.77 pM in data set [1] (Regimen C (Intravenous): 100 μg as 1 mL bolus intravenous solution following an overnight fast, 14C, baseline corrected, mean ± SD, read-out: Cmax); 5.94 ± 1.33 pM in data set [1] (oral 100 μg 14C-labelled M4N after a high fat breakfast, mean±SD, read-out: Cmax for total 14C); 9.29 ± 1.4 pM in data set [1] (oral 100 μg 14C-labelled M4N after an overnight fast, mean±SD, read-out: Cmax for total 14C); 10.3 ± 1.77 pM in data set [1] (single intravenous dose 100 μg in 30% HP-β-CD, 25% PEG, mean±SD, read-out: Cmax for total 14C). For the same compound, the Tmax is 2.50^a hours in data set [1] (Regimen A (oral, fed): 100 μg single oral dose following a high fat breakfast, 14C, baseline corrected, median); 1.00^a hours in data set [1] (Regimen B (oral, fasted): 100 μg single oral dose following an overnight fast, 14C, baseline corrected, median); 0.08^a hours in data set [1] (Regimen C (Intravenous): 100 μg as 1 mL bolus intravenous solution following an overnight fast, 14C, baseline corrected, median); 0.08 h in data set [1] (intravenous dose, eight of the ten subjects (first sampling time)); 0.17 h in data set [1] (intravenous dose, two subjects); about 1 h in data set [1] (oral, fasted subjects). For the same compound, the apparent absorption entry in data set [1] (oral administration, fed and fasted state) is “very high”. In the data set on Sprague-Dawley rats (setting [2]), the “clinical observations: ptosis and hyperactivity” value was “ptosis and hyperactivity occurred in one male and one female rat”. Also, the “clinical observations: tremors” value with Sprague-Dawley rats (setting [2]) is “tremors did occur in one male and one female rat”. The mortality result with Sprague-Dawley rats (100, 150 or 200 mg/kg M4N in 10% HP-β-CD in PEG 300 (6.25 mg/mL), IV infusion 8 mL/kg/hr) was “No obvious mortality related to M4N occurred”. In addition, the “doses that appeared to be tolerated” value in the data set with Sprague-Dawley rats (for up to eight consecutive days) is on record as at most 200 mg/kg/day. Besides, the body weight entry with Sprague-Dawley rats (male and female rats) was “gained weight throughout the study”.
